Source: ChEMBL document CHEMBL3396964, “SAH derived potent and selective EZH2 inhibitors” (Bioorg Med Chem Lett, 2015)
pIC50: −log10 of the molar value. Calls of active or inactive are those of the source. No cut-off for these calls is given here.

How the values were obtained:
[1] = biological target: Histone-lysine N-methyltransferase EZH2 (Homo sapiens, UniProt O75530+Q09028+Q15022+Q15910); experiment: Inhibition of N-terminally FLAG-tagged wild type EZH2 in EZH2/SUZ12/EED/RbAp48 complex (unknown origin) expressed in baculovirus infected in SF9 cells assessed as inhibition of methylation of nucleosomes at H3K27 by scintillation counting in presence of [3H]SAM
Sequence of Histone-lysine N-methyltransferase EZH2 (Homo sapiens, UniProt O75530+Q09028+Q15022+Q15910) (Q15910 whole entry, one chain of several): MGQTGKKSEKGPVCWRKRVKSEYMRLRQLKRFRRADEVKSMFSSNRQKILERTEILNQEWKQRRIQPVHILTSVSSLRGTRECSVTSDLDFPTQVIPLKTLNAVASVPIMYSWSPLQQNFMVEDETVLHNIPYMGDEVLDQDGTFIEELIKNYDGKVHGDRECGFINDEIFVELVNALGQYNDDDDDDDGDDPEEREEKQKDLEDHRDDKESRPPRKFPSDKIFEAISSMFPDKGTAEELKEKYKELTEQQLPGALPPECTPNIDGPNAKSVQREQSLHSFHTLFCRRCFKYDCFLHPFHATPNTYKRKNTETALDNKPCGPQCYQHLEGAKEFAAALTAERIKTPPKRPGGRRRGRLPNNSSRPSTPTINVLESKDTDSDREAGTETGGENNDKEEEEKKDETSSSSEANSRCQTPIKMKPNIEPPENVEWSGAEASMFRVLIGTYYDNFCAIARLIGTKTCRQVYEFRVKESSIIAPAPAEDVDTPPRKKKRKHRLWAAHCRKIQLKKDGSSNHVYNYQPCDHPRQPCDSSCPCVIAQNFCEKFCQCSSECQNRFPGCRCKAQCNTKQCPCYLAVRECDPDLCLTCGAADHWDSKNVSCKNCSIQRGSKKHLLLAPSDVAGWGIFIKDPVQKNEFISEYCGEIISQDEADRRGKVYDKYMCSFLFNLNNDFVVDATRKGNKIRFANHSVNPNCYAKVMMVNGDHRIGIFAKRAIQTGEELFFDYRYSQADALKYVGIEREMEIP

[2] = biological target: Histone-lysine N-methyltransferase EZH2 (Homo sapiens, UniProt O75530+Q09028+Q15022+Q15910, Y641N); experiment: Inhibition of N-terminally FLAG-tagged EZH2 Y641N mutant in EZH2/SUZ12/EED/RbAp48 complex (unknown origin) expressed in baculovirus infected in SF9 cells assessed as inhibition of methylation of nucleosomes at H3K27 by scintillation counting in presence of [3H]SAM
Sequence of Histone-lysine N-methyltransferase EZH2 (Homo sapiens, UniProt O75530+Q09028+Q15022+Q15910, Y641N) (Q15910 whole entry Y641N, one chain of several): as the sequence (Q15910 whole entry, one chain of several) above, with Y641N counted along it

[3] = biological target: T1, Histone-lysine N-methyltransferase SETD7 (Homo sapiens, UniProt Q8WTS6); experiment: Inhibition of SETD7 (unknown origin) by HMT assay
T1 sequence (Q8WTS6 whole entry): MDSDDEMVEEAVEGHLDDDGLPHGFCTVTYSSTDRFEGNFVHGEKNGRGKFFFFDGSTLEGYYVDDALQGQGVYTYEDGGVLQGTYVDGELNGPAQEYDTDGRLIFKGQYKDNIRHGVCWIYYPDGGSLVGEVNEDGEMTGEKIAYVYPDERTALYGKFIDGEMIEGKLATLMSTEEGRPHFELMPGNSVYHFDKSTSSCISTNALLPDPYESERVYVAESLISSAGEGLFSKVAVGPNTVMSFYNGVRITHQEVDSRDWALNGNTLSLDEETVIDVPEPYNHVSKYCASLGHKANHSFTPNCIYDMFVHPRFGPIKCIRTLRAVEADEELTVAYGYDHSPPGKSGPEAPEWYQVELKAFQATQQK

[4] = biological target: N-lysine methyltransferase SMYD2 (Homo sapiens, UniProt Q9NRG4); experiment: Inhibition of SMYD2 (unknown origin) by HMT assay
Sequence of N-lysine methyltransferase SMYD2 (Q9NRG4 whole entry): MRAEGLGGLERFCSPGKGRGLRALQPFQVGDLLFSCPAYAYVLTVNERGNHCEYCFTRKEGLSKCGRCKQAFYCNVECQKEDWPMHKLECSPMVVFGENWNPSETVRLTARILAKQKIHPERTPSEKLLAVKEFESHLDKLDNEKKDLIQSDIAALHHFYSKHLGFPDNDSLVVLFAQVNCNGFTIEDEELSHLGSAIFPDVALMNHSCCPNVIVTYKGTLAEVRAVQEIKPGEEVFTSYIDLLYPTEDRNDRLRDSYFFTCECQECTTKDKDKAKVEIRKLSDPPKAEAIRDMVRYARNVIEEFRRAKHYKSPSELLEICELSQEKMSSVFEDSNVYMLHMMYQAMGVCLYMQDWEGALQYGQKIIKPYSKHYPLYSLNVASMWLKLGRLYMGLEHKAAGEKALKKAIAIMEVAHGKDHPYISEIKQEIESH

[5] = biological target: Histone-lysine N-methyltransferase 2A (Homo sapiens, UniProt Q03164); experiment: Inhibition of MLL (unknown origin) by HMT assay
[6] = biological target: Histone-lysine N-methyltransferase KMT5C (Homo sapiens, UniProt Q86Y97); experiment: Inhibition of SUV420H2 (unknown origin) by HMT assay
Sequence of Histone-lysine N-methyltransferase KMT5C (Q86Y97 whole entry): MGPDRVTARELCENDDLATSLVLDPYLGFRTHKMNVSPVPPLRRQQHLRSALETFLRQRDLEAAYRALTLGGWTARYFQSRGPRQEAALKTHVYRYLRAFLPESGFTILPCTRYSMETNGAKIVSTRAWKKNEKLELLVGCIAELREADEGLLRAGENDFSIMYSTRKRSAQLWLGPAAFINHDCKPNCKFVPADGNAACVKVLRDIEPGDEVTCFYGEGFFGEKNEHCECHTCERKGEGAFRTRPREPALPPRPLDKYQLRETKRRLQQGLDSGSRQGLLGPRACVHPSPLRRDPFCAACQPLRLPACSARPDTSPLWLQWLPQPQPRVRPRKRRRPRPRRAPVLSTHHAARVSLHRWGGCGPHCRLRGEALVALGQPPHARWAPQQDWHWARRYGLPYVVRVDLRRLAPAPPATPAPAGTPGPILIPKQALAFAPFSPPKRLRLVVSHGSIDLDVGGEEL

[7] = biological target: Histone-lysine N-methyltransferase SETDB1 (Homo sapiens, UniProt Q15047); experiment: Inhibition of SETDB1 (unknown origin) by HMT assay
[8] = biological target: T2, Histone-lysine N-methyltransferase EHMT1 (Homo sapiens, UniProt Q9H9B1); experiment: Inhibition of EHMT1 (unknown origin) by HMT assay
T2 sequence (Q9H9B1 whole entry): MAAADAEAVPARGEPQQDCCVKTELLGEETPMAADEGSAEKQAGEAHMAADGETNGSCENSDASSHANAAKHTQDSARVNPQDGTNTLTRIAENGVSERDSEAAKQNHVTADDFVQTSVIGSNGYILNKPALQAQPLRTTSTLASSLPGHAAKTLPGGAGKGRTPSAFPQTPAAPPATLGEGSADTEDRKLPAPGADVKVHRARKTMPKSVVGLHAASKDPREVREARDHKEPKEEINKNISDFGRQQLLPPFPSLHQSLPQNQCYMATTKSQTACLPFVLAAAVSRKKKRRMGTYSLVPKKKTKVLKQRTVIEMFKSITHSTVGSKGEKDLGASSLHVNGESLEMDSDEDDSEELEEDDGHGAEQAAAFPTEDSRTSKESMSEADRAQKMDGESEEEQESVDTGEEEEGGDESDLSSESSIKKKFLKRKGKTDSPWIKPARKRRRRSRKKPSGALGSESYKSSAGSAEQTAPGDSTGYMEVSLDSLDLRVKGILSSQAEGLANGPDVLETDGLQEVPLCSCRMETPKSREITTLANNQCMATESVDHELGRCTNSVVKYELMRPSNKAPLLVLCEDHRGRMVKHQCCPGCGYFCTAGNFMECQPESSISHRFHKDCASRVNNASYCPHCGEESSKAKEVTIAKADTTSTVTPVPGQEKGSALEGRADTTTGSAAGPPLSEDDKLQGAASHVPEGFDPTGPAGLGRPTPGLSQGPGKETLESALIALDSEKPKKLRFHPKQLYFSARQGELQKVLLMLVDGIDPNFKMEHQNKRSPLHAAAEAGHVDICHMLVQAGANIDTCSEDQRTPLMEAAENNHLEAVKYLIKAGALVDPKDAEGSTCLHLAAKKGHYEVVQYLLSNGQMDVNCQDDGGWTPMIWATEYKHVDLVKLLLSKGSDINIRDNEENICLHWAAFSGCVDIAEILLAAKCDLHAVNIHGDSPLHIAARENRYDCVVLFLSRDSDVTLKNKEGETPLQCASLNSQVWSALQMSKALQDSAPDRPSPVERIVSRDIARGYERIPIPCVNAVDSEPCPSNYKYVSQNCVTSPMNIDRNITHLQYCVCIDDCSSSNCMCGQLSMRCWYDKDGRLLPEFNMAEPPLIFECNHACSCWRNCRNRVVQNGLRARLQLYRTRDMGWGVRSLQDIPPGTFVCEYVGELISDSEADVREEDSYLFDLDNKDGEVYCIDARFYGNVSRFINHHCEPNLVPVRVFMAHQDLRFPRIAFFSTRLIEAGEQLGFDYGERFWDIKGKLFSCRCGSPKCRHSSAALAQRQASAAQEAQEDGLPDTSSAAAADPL

[9] = biological target: Histone-lysine N-methyltransferase SUV39H2 (Homo sapiens, UniProt Q9H5I1); experiment: Inhibition of SUV39H2 (unknown origin) by HMT assay
Sequence of Histone-lysine N-methyltransferase SUV39H2 (Q9H5I1 whole entry): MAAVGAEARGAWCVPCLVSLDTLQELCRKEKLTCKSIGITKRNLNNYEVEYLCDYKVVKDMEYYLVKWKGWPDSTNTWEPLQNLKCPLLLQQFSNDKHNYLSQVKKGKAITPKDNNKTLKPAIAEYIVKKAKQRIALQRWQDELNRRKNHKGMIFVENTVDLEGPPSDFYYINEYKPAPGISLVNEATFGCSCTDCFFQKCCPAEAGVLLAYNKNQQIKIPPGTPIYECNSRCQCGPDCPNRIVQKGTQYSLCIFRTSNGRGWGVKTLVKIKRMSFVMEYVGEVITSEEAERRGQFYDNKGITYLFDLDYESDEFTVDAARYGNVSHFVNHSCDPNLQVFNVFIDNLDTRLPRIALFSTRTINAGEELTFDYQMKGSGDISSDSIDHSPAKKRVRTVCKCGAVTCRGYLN

[10] = biological target: Histone-lysine N-methyltransferase EZH2 (Homo sapiens) (UniProt Q15910); experiment: Inhibition of EZH2 (unknown origin) at 100 uM by cell-based assay
Sequence of Histone-lysine N-methyltransferase EZH2 (Homo sapiens) (Q15910 whole entry, looked up): as the sequence (Q15910 whole entry, one chain of several) above

## CC(C)(C)c1cc(CNC(=O)[C@@H](N)CCSC[C@H]2O[C@@H](n3cnc4c(N)ncnc43)[C@H](O)[C@@H]2O)n[nH]1
[1]
  pIC50: 4.85
[2]
  pIC50: 5.44

## Cc1ccccc1-n1cc(CNC(=O)[C@@H](N)CCSC[C@H]2O[C@@H](n3cnc4c(N)ncnc43)[C@H](O)[C@@H]2O)cn1
[1]
  pIC50: 4.55

## CCCCNC(=O)C(N)CCSC[C@H]1O[C@@H](n2cnc3c(N)ncnc32)[C@H](O)[C@@H]1O (mixture of isomers)
[1]
  pIC50: 4.62

## Cn1nc(CNC(=O)[C@@H](N)CCSC[C@H]2O[C@@H](n3cnc4c(N)ncnc43)[C@H](O)[C@@H]2O)cc1C1CCC1
[1]
  pIC50: 4.40

## Nc1ncnc2c1ncn2[C@@H]1O[C@H](CSCC[C@H](N)C(=O)NCc2cnn(Cc3ccccc3)c2)[C@@H](O)[C@H]1O
[1]
  pIC50: 4.62

## Nc1ncnc2c1ncn2[C@@H]1O[C@H](CSCC[C@H](N)C(=O)NCC2CC2)[C@@H](O)[C@H]1O
[1]
  pIC50: 4.22

## Nc1ncnc2c1ncn2[C@@H]1O[C@H](CSCC[C@H](N)C(=O)O)[C@@H](O)[C@H]1O [S-ADENOSYLHOMOCYSTEINE]
[3]
  pIC50: 4.52
[4]
  pIC50: 6.74
[5]
  pIC50: 5.64
[6]
  pIC50: 5.00
[7]
  pIC50: 5.66
[8]
  pIC50: 6.64
[9]
  pIC50: 4.49
[10]
  inhibition: inactive

## CN1CCn2nc(CNC(=O)[C@@H](N)CCSC[C@H]3O[C@@H](n4cnc5c(N)ncnc54)[C@H](O)[C@@H]3O)cc2C1
[1]
  pIC50: 4.30

## Nc1ncnc2c1ncn2[C@@H]1O[C@H](CSCC[C@H](N)C(=O)NCc2cc3n(n2)CCN(Cc2ccccc2)C3)[C@@H](O)[C@H]1O
[1]
  pIC50: 5.10
[2]
  pIC50: 5.55

## Cc1cc(CNC(=O)[C@@H](N)CCSC[C@H]2O[C@@H](n3cnc4c(N)ncnc43)[C@H](O)[C@@H]2O)n(C)n1
[1]
  pIC50: 4.40

## Nc1ncnc2c1ncn2[C@@H]1O[C@H](CSCC[C@H](N)C(=O)NCc2cc(C3CCC3)[nH]n2)[C@@H](O)[C@H]1O
[1]
  pIC50: 5.52
[2]
  pIC50: 6.00

## COCc1cc(CNC(=O)[C@@H](N)CCSC[C@H]2O[C@@H](n3cnc4c(N)ncnc43)[C@H](O)[C@@H]2O)n[nH]1
[1]
  pIC50: 4.40

## CCn1cc(CNC(=O)[C@@H](N)CCSC[C@H]2O[C@@H](n3cnc4c(N)ncnc43)[C@H](O)[C@@H]2O)cn1
[1]
  pIC50: 4.30

## Nc1ncnc2c1ncn2[C@@H]1O[C@H](CSCC[C@H](N)C(=O)NCc2cnn(-c3ccc(F)cc3)c2)[C@@H](O)[C@H]1O
[1]
  pIC50: 5.85
[2]
  pIC50: 6.22

## Nc1ncnc2c1ncn2[C@@H]1O[C@H](CSCC[C@H](N)C(=O)NCc2ccccc2)[C@@H](O)[C@H]1O
[1]
  pIC50: 3.92

## CCCCNC(=O)[C@@H](N)CCSC[C@H]1O[C@@H](n2cnc3c(N)ncnc32)[C@H](O)[C@@H]1O
[1]
  pIC50: 4.72
